Laboratory results as given in PMC10115881, “Disrupting the α-synuclein-ESCRT interaction with a peptide inhibitor mitigates neurodegeneration in preclinical models of Parkinson’s disease” (Nature Communications, 2023).

Experiments:
[1] = tested on: endolysosomal flux in HEK293 cells; assay: Endolysosomal flux assay, flow cytometry, HEK293 cells; format: cell-based, human; details: A53T a-syn
Method: Flux via the endolysosomal pathway was measured with the Lysosome Intracellular Activity Assay Kit which was purchased from Abcam (ab234622) and used according to the manufacturer’s instructions. The kit provides a proprietary lysosome-specific self-quenched substrate which has low background fluorescence, high signal-to-background ratio, and is pH insensitive. In the assay, the substrate is taken up by cells and acts as endocytic cargo which is degraded within an endolysosomal vesicle. Following degradation, the fluorescence signal recovered from the substrate is proportional to the intracellular lysosomal activity. The activity can be measured by fluorescence microscopy or FACS. The assay was performed with HEK293T cells or SNCA triplication fibroblasts (obtained from NINDS Human Genetics Resource Center DNA and Cell Line Repository; NINDS Repository sample number ND27760). Cells were maintained in DMEM supplemented with 10% FBS and 1% pen/strep/glutamine. Cell medium was replaced with fresh medium containing DMSO, Leupeptin, or Bafilomycin A1 and incubated for 1 h at 37 °C with 5% CO2. Self-quenched substrate was added into each condition and incubated for 1 h (HEK293T cells) or overnight (SNCA triplication fibroblasts) at 37 °C with 5% CO2. […] For HEK293T cells, cells were resuspended in PBS containing DMSO or Leupeptin and analyzed by FACS. […]

[2] = tested on: LC3-HiBiT reporter in HEK293 cells; assay: Autophagy flux assay (LC3-HiBiT reporter), HEK293 cells; format: cell-based, human
Source text: Autophagic flux was quantitatively measured with the Autophagy LC3-HiBiT Reporter Assay System which was purchased from Promega (GA1040) and used according to the manufacturer’s instructions. When autophagy is induced, the cytosolic LC3-I fusion protein is recruited to phagophores where it becomes conjugated to phosphatidylethanolamine to form LC3-II. Upon phagophore membrane elongation and closure to form the mature autophagosome, a significant fraction of tethered LC3 protein becomes captured within the lumen together with various cargo. Subsequently, autophagosomes fuse with lysosomes to form autolysosomes, leading to the ultimate degradation of both cargo and the captured LC3 reporter protein. Thus, changes in the total level of the LC3 reporter protein can be used to monitor changes in autophagic flux. HEK293 cells (ATCC, CRL-1573) stably expressing the LC3-HiBiT reporter were trypsinized from subconfluent culture and seeded in a 10 cm plate at a density of 3.0 × 10^6 per plate. Cells were incubated overnight at 37 °C in 5% CO2. Cells were transfected with FLAG-peptide plasmids in combination with pcDNA or A53T a-syn plasmids. After 24 h, cells were trypsinized and seeded in triplicate in a white flat-bottomed 96-well plate at a density of 20,000 cells per well. Cell medium was replaced the next day with fresh medium containing DMSO, Rapamycin, or Bafilomycin A1 and incubated for 24 h at 37 °C with 5% CO2. 80 µL of Working prewarmed Nano-Glo® HiBiT lytic buffer containing HiBiT substrate and LgBit protein (N3030) were added to each well containing 20 µL of cell medium and left to incubate on a rocker for 10 min. Samples were read using a luminometer with a 480 nm filter with measured RLU being directly proportional to HiBiT-conjugated LC3.

With DEEIERQLKALG [PDpep1.3] the “Effect on endolysosomal flux” value [1] was “returned the fluorescent signal to baseline” and the “Effect on autophagic flux” value [2] was “neither A53T a-syn nor PDpep1.3 altered autophagic flux”.
